Test results reported in paper PMC9127750, “Structure-based design of CDC42 effector interaction inhibitors for the treatment of cancer” (Cell reports, 2022).
Several values for one entry are separate records, joined by “and”; a condition that tells them apart may be missing. Identical values can stand only once.

Tested on: WM3248 melanoma cells, 486 antibodies
Test: Reverse phase protein arrays (RPPA)
Type: cell-based, Human
From the text: Pellets were snap frozen in liquid nitrogen and shipped to MD Anderson Cancer Center core RPPA facility for RPPA analysis (Table S5). Three biological replicates for each sample were generated.
Nomenclatures on the RPPA heatmaps: name_of_antibody.species_of_antibody.status_of_antibody. V - antibody validated; C - validation of antibody in progress; Q - antibody nonspecific; E – under evaluation; antibodies raised in M - mouse, G - goat, R - rabbit, or T - rat.

[1] = level 10 normalized to 0, mean of 3

For `CN(C)c1cccc(Nc2cc(-c3ccccc3)nc(C3CCNCC3)n2)c1` [ARN22089, N1,N1-dimethyl-N3-(6-phenyl-2-(piperidin-4-yl)pyrimidin-4-yl)benzene-1,3-diamine], the “INPP4b.R.C Norm_5” value (level 5 vs 0, replicates) was 0.976 and 1.019, the “IR.b.R.C Norm_5” value (level 5 vs 0, replicates) was 1.056 and 1.010 and the “IRF.1.R.V Norm_5” value (level 5 vs 0, replicates) was 0.974 and 0.981 and 1.030. The “IRF.3.R.V Norm_5” value (level 5 vs 0, replicates) was 0.924 and 0.890 and 0.996, the “IRS1.R.V Norm_5” value (level 5 vs 0, replicates) was 1.029 and 1.046 and 0.995 and the “IRS2.R.C Norm_5” value (level 5 vs 0, replicates) was 1.195 and 0.736 and 1.046. For the same compound, the “JAB1.M.C Norm_5” value (level 5 vs 0, replicates) was 0.954 and 0.981 and 0.972, the “JNK2.R.V Norm_5” value (level 5 vs 0, replicates) was 0.643 and 1.507 and the “JNK_pT183_Y185.R.C Norm_5” value (level 5 vs 0, replicates) was 1.060 and 0.929 and 0.988. For the same compound, the “Jagged1.R.V Norm_5” value (level 5 vs 0, replicates) was 1.010 and 1.054 and 0.889, the “Jak2.R.V Norm_5” value (level 5 vs 0, replicates) was 0.979 and 0.991 and the “KAP1.R.V Norm_5” value (level 5 vs 0, replicates) was 1.116 and 1.063 and 1.099. The “KEAP1.R.V Norm_5” value (level 5 vs 0, replicates) was 1.026 and 0.913 and 0.925, the “LAD1.R.V Norm_5” value (level 5 vs 0, replicates) was 0.952 and 0.910 and 1.029 and the “LC3A.B.R.C Norm_5” value (level 5 vs 0, replicates) was 1.119 and 0.843. The “LCN2.R.V Norm_5” value (level 5 vs 0, replicates) was 1.996 and 0.913 and 0.985, the “LDHA.R.C Norm_5” value (level 5 vs 0, replicates) was 1.253 and 1.735 and 0.318 and the “LRP6_pS1490.R.V Norm_5” value (level 5 vs 0, replicates) was 1.015 and 1.011 and 1.114. For the same compound, the “Lasu1.R.V Norm_5” value (level 5 vs 0, replicates) was 0.982 and 1.009 and 0.926, the “Lck.R.V Norm_5” value (level 5 vs 0, replicates) was 1.005 and 1.060 and 0.966 and the “Lyn.R.V Norm_5” value (level 5 vs 0, replicates) was 0.801 and 0.941 and 0.791. The “MACC1.R.V Norm_5” value (level 5 vs 0, replicates) was 0.899 and 0.883 and 1.061, the “MAPK_pT202_Y204.R.C Norm_5” value (level 5 vs 0, replicates) was 1.017 and 0.736 and 0.856 and the “MCT4.R.V Norm_5” value (level 5 vs 0, replicates) was 1.005 and 0.979 and 1.159. For the same compound, the “MDM2_pS166.R.V Norm_5” value (level 5 vs 0, replicates) was 1.021 and 1.261 and 0.787, the “MEK1.R.V Norm_5” value (level 5 vs 0, replicates) was 1.082 and 0.785 and 1.201 and the “MEK1_pS217_S221.R.V Norm_5” value (level 5 vs 0, replicates) was 0.926. For the same compound, the “MEK2.R.V Norm_5” value (level 5 vs 0, replicates) was 1.048 and 1.127 and 0.942, the “MERIT40.R.C Norm_5” value (level 5 vs 0, replicates) was 0.988 and 1.019 and 0.961 and the “MERIT40_pS29.R.V Norm_5” value (level 5 vs 0, replicates) was 1.133 and 1.001. The “METTL3.R.V Norm_5” value (level 5 vs 0, replicates) was 0.968 and 1.099 and 0.891, the “MIF.R.C Norm_5” value (level 5 vs 0, replicates) was 0.931 and 0.965 and 0.948 and the “MIG6.R.V Norm_5” value (level 5 vs 0, replicates) was 0.932 and 0.886 and 1.000. The “MITF.R.V Norm_5” value (level 5 vs 0, replicates) was 0.975 and 1.014, the “MLH1.M.V Norm_5” value (level 5 vs 0, replicates) was 0.900 and 0.937 and 0.942 and the “MLKL.R.V Norm_5” value (level 5 vs 0, replicates) was 0.966 and 0.982 and 0.886. For the same compound, the “MMP2.R.V Norm_5” value (level 5 vs 0, replicates) was 0.925 and 0.948 and 0.967, the “MMP14.R.V Norm_5” value (level 5 vs 0, replicates) was 1.097 and 1.257 and the “MR1.M.C Norm_5” value (level 5 vs 0, replicates) was 0.897 and 0.992. For the same compound, the “MRAP.R.C Norm_5” value (level 5 vs 0, replicates) was 1.109 and 1.057 and 0.987, the “MSH2.R.C Norm_5” value (level 5 vs 0, replicates) was 0.939 and 1.022 and 0.901 and the “MSH6.R.C Norm_5” value (level 5 vs 0, replicates) was 1.190 and 0.909. For the same compound, the “MSI2.R.C Norm_5” value (level 5 vs 0, replicates) was 1.108 and 1.110 and 1.024, the “MTCO1.M.V Norm_5” value (level 5 vs 0, replicates) was 0.944 and 0.964 and 1.334 and the “MTSS1.M.C Norm_5” value (level 5 vs 0, replicates) was 0.924 and 0.926 and 1.000. The “Mcl.1.R.V Norm_5” value (level 5 vs 0, replicates) was 0.943 and 0.925 and 1.013, the “MelanA.R.C Norm_5” value (level 5 vs 0, replicates) was 0.973 and 1.097 and the “Melanoma.gp100.R.C Norm_5” value (level 5 vs 0, replicates) was 1.016. The “Merlin.R.C Norm_5” value (level 5 vs 0, replicates) was 1.257 and 0.725, the “Midkine.R.V Norm_5” value (level 5 vs 0, replicates) was 0.866 and 0.942 and 0.987 and the “Mitofusin.1.R.V Norm_5” value (level 5 vs 0, replicates) was 1.058 and 0.973. The “Mitofusin.2.R.V Norm_5” value (level 5 vs 0, replicates) was 0.945, the “Mnk1.R.V Norm_5” value (level 5 vs 0, replicates) was 1.014 and 0.983 and the “mTOR.R.V Norm_5” value (level 5 vs 0, replicates) was 1.006 and 1.101 and 0.990. The “mTOR_pS2448.R.C Norm_5” value (level 5 vs 0, replicates) was 1.104 and 1.133 and 1.002, the “TSC1.R.C Norm_10 Average” value [1] was 0.899 and the “TTF1.R.V Norm_10 Average” value [1] was 1.078. The “TUFM.R.V Norm_10 Average” value [1] was 1.221, the “Tuberin.R.V Norm_10 Average” value [1] was 0.835 and the “Tuberin_pT1462.R.V Norm_10 Average” value [1] was 1.064. The “Twist.M.C Norm_10 Average” value [1] was 1.019, the “Tyro3.R.V Norm_10 Average” value [1] was 1.386 and the “U.Histone.H2B.R.C Norm_10 Average” value [1] was 0.890. The “UBAC1.R.V Norm_10 Average” value [1] was 1.014, the “UBQLN4.M.C Norm_10 Average” value [1] was 0.961 and the “UGT1A.M.V Norm_10 Average” value [1] was 1.050. For the same compound, the “UQCRC2.M.C Norm_10 Average” value [1] was 1.112, the “UVRAG.R.C Norm_10 Average” value [1] was 0.935 and the “VASP.R.V Norm_10 Average” value [1] was 0.873. The “VAV1.R.C Norm_10 Average” value [1] was 0.923, the “VEGFR.2.R.V Norm_10 Average” value [1] was 0.957 and the “VEGFR.2_pY1175.R.C Norm_10 Average” value [1] was 0.964. For the same compound, the “VHL.EPPK1.M.C Norm_10 Average” value [1] was 1.030, the “VHL.R.C Norm_10 Average” value [1] was 0.986 and the “Vinculin.M.V Norm_10 Average” value [1] was 0.988. For the same compound, the “WIPI1.R.C Norm_10 Average” value [1] was 1.318, the “WIPI2.R.C Norm_10 Average” value [1] was 0.944 and the “WTAP.R.V Norm_10 Average” value [1] was 1.224. The “Wee1.R.C Norm_10 Average” value [1] was 0.915, the “Wee1_pS642.R.C Norm_10 Average” value [1] was 0.900 and the “XBP.1.G.C Norm_10 Average” value [1] was 1.193.
